The source of these data is patent publication US20240043404A1 (AbbVie Inc., priority 2009, published 2024).

One experiment has as its system RS4;11 cells. Briefly: RS4;11 cell viability assay (CellTiter Glo).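 Further: acute lymphoblastic leukemia line RS4,11, EC50 derived from percentage of viable cells after treatment relative to untreated controls, cell killing taken as a measure of Bcl-2 inhibition.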 Conditions: Homo sapiens, RS4-11, 48 h, 50,000 cells per well, 10% human serum, 48 hours; read-out: RS4; 11 EC50 Values. Type of experiment: cell-based, human.
Experimental: The acute lymphoblastic leukemia (ALL) cell line RS4;11 was used as the primary human cell line to assess the cellular activity of Bcl-2 selective agents in vitro and their efficacy in vivo.
Cell cytotoxicity EC50 values were assessed using CellTiter Glo (Promega) according to the manufacturer's recommendations. The EC50 values were determined as a percentage of viable cells following treatment compared to the untreated control cells.
For `CC1(C)CCC(CN2CCN(c3ccc(C(=O)NS(=O)(=O)c4ccc(NC5CCN(C(C)(C)C)CC5)c([N+](=O)[O-])c4)c(Oc4cnc5[nH]ccc5c4)c3)CC2)=C(c2ccc(Cl)cc2)C1` [Example 227, N-({4-[(1-tert-butylpiperidin-4-yl)amino]-3-nitrophenyl}sulfonyl)-4-(4-{[2-(4-chlorophenyl)-4,4-dimethylcyclohex-1-en-1-yl]methyl}piperazin-1-yl)-2-(1H-pyrrolo[2,3-b]pyridin-5-yloxy)benzamide], the EC50 turned out to be 0.00736 µM.
For the compound `CC1(C)CCC(CN2CCN(c3ccc(C(=O)NS(=O)(=O)c4ccc(NCC5CCOC5)c([N+](=O)[O-])c4)c(Oc4cnc5[nH]ccc5c4)c3)CC2)=C(c2ccc(Cl)cc2)C1` (stereo not shown) [Example 114, 4-(4-{[2-(4-chlorophenyl)-4,4-dimethylcyclohex-1-en-1-yl]methyl}piperazin-1-yl)-N-({3-nitro-4-[(tetrahydrofuran-3-ylmethyl)amino]phenyl}sulfonyl)-2-(1H-pyrrolo[2,3-b]pyridin-5-yloxy)benzamide], the EC50 stood at 0.0108 µM.
For `CC1(C)CCC(CN2CCN(c3ccc(C(=O)NS(=O)(=O)c4cnc(OCC5CCC(N(C6CC6)C6COC6)CC5)c(Cl)c4)c(Oc4cnc5[nH]ccc5c4)c3)CC2)=C(c2ccc(Cl)cc2)C1` (stereo not shown) [Example 329, N-{[5-chloro-6-({4-[cyclopropyl(oxetan-3-yl)amino]cyclohexyl}methoxy)pyridin-3-yl]sulfonyl}-4-(4-{[2-(4-chlorophenyl)-4,4-dimethylcyclohex-1-en-1-yl]methyl}piperazin-1-yl)-2-(1H-pyrrolo[2,3-b]pyridin-5-yloxy)benzamide], the EC50 was determined as 0.424 µM.
On the same count and under the same terms, as for `CC1(C)CCC(CN2CCN(c3ccc(C(=O)NS(=O)(=O)c4ccc(OCC5(F)CCOCC5)c([N+](=O)[O-])c4)c(Oc4cnc5[nH]ccc5c4)c3)CC2)=C(c2ccc(Cl)cc2)C1` [Example 37, 4-(4-{[2-(4-chlorophenyl)-4,4-dimethylcyclohex-1-en-1-yl]methyl}piperazin-1-yl)-N-({4-[(4-fluorotetrahydro-2H-pyran-4-yl)methoxy]-3-nitrophenyl}sulfonyl)-2-(1H-pyrrolo[2,3-b]pyridin-5-yloxy)benzamide], the figure is 0.00118 µM; as for `CC1(C)CCC(CN2CCN(c3ccc(C(=O)NS(=O)(=O)c4cnc(OCC5(F)CCN(CC#N)CC5)c(Cl)c4)c(Oc4cnc5[nH]ccc5c4)c3)CC2)=C(c2ccc(Cl)cc2)C1` [Example 257, N-[(5-chloro-6-{[1-(cyanomethyl)-4-fluoropiperidin-4-yl]methoxy}pyridin-3-yl)sulfonyl]-4-(4-{[2-(4-chlorophenyl)-4,4-dimethylcyclohex-1-en-1-yl]methyl}piperazin-1-yl)-2-(1H-pyrrolo[2,3-b]pyridin-5-yloxy)benzamide], 0.026 µM.
As to `O=C(NS(=O)(=O)c1ccc(NCC2CCOCC2)c([N+](=O)[O-])c1)c1ccc(N2CCC(F)(Cc3ccccc3-c3ccc(Cl)cc3)CC2)cc1Oc1cnc2[nH]ccc2c1` [Example 271, 4-{4-[(4′-chlorobiphenyl-2-yl)methyl]-4-fluoropiperidin-1-yl}-N-({3-nitro-4-[(tetrahydro-2H-pyran-4-ylmethyl)amino]phenyl}sulfonyl)-2-(1H-pyrrolo[2,3-b]pyridin-5-yloxy)benzamide], the EC50 turned out to be 0.437 µM.
Still for that read-out and setting: as for `CC1(C)CCC(CN2CCN(c3ccc(C(=O)NS(=O)(=O)c4cnc(NCC5(F)CCOCC5)c(Cl)c4)c(Oc4cnc5[nH]ccc5c4)c3)CC2)=C(c2ccc(Cl)cc2)C1` [Example 242, N-[(5-chloro-6-{[(4-fluorotetrahydro-2H-pyran-4-yl)methyl]amino}pyridin-3-yl)sulfonyl]-4-(4-{[2-(4-chlorophenyl)-4,4-dimethylcyclohex-1-en-1-yl]methyl}piperazin-1-yl)-2-(1H-pyrrolo[2,3-b]pyridin-5-yloxy)benzamide], the figure is 0.223 µM; as for `CC1(C)CCC(CN2CCN(c3ccc(C(=O)NS(=O)(=O)c4cnc(OCC5CCOCC5)c(F)c4)c(Oc4cnc5[nH]ccc5c4)c3)CC2)=C(c2ccc(Cl)cc2)C1` [Example 293, 4-(4-{[2-(4-chlorophenyl)-4,4-dimethylcyclohex-1-en-1-yl]methyl}piperazin-1-yl)-N-{[5-fluoro-6-(tetrahydro-2H-pyran-4-ylmethoxy)pyridin-3-yl]sulfonyl}-2-(1H-pyrrolo[2,3-b]pyridin-5-yloxy)benzamide], 0.287 µM.
`CC1(C)CCC(CN2CCN(c3ccc(C(=O)NS(=O)(=O)c4cc(F)c(NCC5CCOCC5)c(Cl)c4)c(Oc4cnc5[nH]ccc5c4)c3)CC2)=C(c2ccc(Cl)cc2)C1` [Example 86, N-({3-chloro-5-fluoro-4-[(tetrahydro-2H-pyran-4-ylmethyl)amino]phenyl}sulfonyl)-4-(4-{[2-(4-chlorophenyl)-4,4-dimethylcyclohex-1-en-1-yl]methyl}piperazin-1-yl)-2-(1H-pyrrolo[2,3-b]pyridin-5-yloxy)benzamide]: the EC50 was found to be 1.02 µM.
With `CC1(C)CCC(CC2CCN(c3ccc(C(=O)NS(=O)(=O)c4ccc(NCC5CCOCC5)c([N+](=O)[O-])c4)c(Oc4cnc5[nH]ccc5c4)c3)CC2)=C(c2ccc(Cl)cc2)C1` [Example 315, 4-(4-{[2-(4-chlorophenyl)-4,4-dimethylcyclohex-1-en-1-yl]methyl}piperidin-1-yl)-N-({3-nitro-4-[(tetrahydro-2H-pyran-4-ylmethyl)amino]phenyl}sulfonyl)-2-(1H-pyrrolo[2,3-b]pyridin-5-yloxy)benzamide], the EC50 was determined as 0.21 µM.
Regarding `CC1(C)CCC(CN2CCN(c3ccc(C(=O)NS(=O)(=O)c4ccc(OCC5COCCN5C5CCOCC5)c([N+](=O)[O-])c4)c(Oc4cnc5[nH]ccc5c4)c3)CC2)=C(c2ccc(Cl)cc2)C1` (stereo not shown) [Example 104, 4-(4-{[2-(4-chlorophenyl)-4,4-dimethylcyclohex-1-en-1-yl]methyl}piperazin-1-yl)-N-({3-nitro-4-[(4-tetrahydro-2H-pyran-4-ylmorpholin-3-yl)methoxy]phenyl}sulfonyl)-2-(1H-pyrrolo[2,3-b]pyridin-5-yloxy)benzamide], the EC50 worked out at 0.0713 µM.
The same measure, in the same setting: the figure for `CO[C@H]1CC[C@H](CNc2ccc(S(=O)(=O)NC(=O)c3ccc(N4CCN(CC5=C(c6ccc(Cl)cc6)CC(C)(C)CC5)CC4)cc3Oc3cnc4[nH]ccc4c3)cc2[N+](=O)[O-])CC1` [Example 34, Trans-4-(4-{[2-(4-chlorophenyl)-4,4-dimethylcyclohex-1-en-1-yl]methyl}piperazin-1-yl)-N-[(4-{[(4-methoxycyclohexyl)methyl]amino}-3-nitrophenyl)sulfonyl]-2-(1H-pyrrolo[2,3-b]pyridin-5-yloxy)benzamide] is 0.00748 µM; for `CN(C)CC(=O)N1CCO[C@@H](CNc2ccc(S(=O)(=O)NC(=O)c3ccc(N4CCN(CC5=C(c6ccc(Cl)cc6)CC(C)(C)CC5)CC4)cc3Oc3cnc4[nH]ccc4c3)cc2[N+](=O)[O-])C1` [Example 259, 4-(4-{[2-(4-chlorophenyl)-4,4-dimethylcyclohex-1-en-1-yl]methyl}piperazin-1-yl)-N-{[4-({[(2S)-4-(N,N-dimethylglycyl)morpholin-2-yl]methyl}amino)-3-nitrophenyl]sulfonyl}-2-(1H-pyrrolo[2,3-b]pyridin-5-yloxy)benzamide] it is 0.000388 µM; for `CC1(C)CCC(CN2CCN(c3ccc(C(=O)NS(=O)(=O)c4ccc(NN5CCN(C6CCOCC6)CC5)c([N+](=O)[O-])c4)c(Oc4cnc5[nH]ccc5c4)c3)CC2)=C(c2ccc(Cl)cc2)C1` [Example 237, 4-(4-{[2-(4-chlorophenyl)-4,4-dimethylcyclohex-1-en-1-yl]methyl}piperazin-1-yl)-N-[(3-nitro-4-{[4-(tetrahydro-2H-pyran-4-yl)piperazin-1-yl]amino}phenyl)sulfonyl]-2-(1H-pyrrolo[2,3-b]pyridin-5-yloxy)benzamide] it is 0.0532 µM.
Turning to `CC1(C)CCC(CN2CCN(c3ccc(C(=O)NS(=O)(=O)c4ccc(NC[C@@H]5CCCOC5)c([N+](=O)[O-])c4)c(Oc4ccc5[nH]ccc5c4)c3)CC2)=C(c2ccc(Cl)cc2)C1` [Example 21, 4-(4-{[2-(4-chlorophenyl)-4,4-dimethylcyclohex-1-en-1-yl]methyl}piperazin-1-yl)-2-(1H-indol-5-yloxy)-N-[(3-nitro-4-{[(3S)-tetrahydro-2H-pyran-3-ylmethyl]amino}phenyl)sulfonyl]benzamide], the EC50 turned out to be 0.062 µM.
Turning to `CC1(C)CCC(CN2CCN(c3ccc(C(=O)NS(=O)(=O)c4ccc(N[C@H]5CCCN(C6CCOCC6)C5)c([N+](=O)[O-])c4)c(Oc4cnc5[nH]ccc5c4)c3)CC2)=C(c2ccc(Cl)cc2)C1` [Example 105, 4-(4-{[2-(4-chlorophenyl)-4,4-dimethylcyclohex-1-en-1-yl]methyl}piperazin-1-yl)-N-[(3-nitro-4-{[(3S)-1-tetrahydro-2H-pyran-4-ylpiperidin-3-yl]amino}phenyl)sulfonyl]-2-(1H-pyrrolo[2,3-b]pyridin-5-yloxy)benzamide], the EC50 was determined as 0.0536 µM.
On the same count and under the same terms, the figure for `CC(=O)N1CC[C@@H](Nc2ccc(S(=O)(=O)NC(=O)c3ccc(N4CCN(CC5=C(c6ccc(Cl)cc6)CC(C)(C)CC5)CC4)cc3Oc3cnc4[nH]ccc4c3)cc2[N+](=O)[O-])C1` [Example 154, N-[(4-{[(3R)-1-acetylpyrrolidin-3-yl]amino}-3-nitrophenyl)sulfonyl]-4-(4-{[2-(4-chlorophenyl)-4,4-dimethylcyclohex-1-en-1-yl]methyl}piperazin-1-yl)-2-(1H-pyrrolo[2,3-b]pyridin-5-yloxy)benzamide] is 0.0265 µM.
Consider `CC1(C)CCC(CN2CCN(c3ccc(C(=O)NS(=O)(=O)c4ccc(NC5CCN(C6CCOC(C)(C)C6)CC5)c([N+](=O)[O-])c4)c(Oc4cnc5[nH]ccc5c4)c3)CC2)=C(c2ccc(Cl)cc2)C1` (stereo not shown) [Example 141, 4-(4-{[2-(4-chlorophenyl)-4,4-dimethylcyclohex-1-en-1-yl]methyl}piperazin-1-yl)-N-[(4-{[1-(2,2-dimethyltetrahydro-2H-pyran-4-yl)piperidin-4-yl]amino}-3-nitrophenyl)sulfonyl]-2-(1H-pyrrolo[2,3-b]pyridin-5-yloxy)benzamide], for which the EC50 came out at 0.0204 µM.

The experiment is the same for the next values; noted with them: Homo sapiens, RS4-11, Table 5, direct comparison Z=N with corresponding analogs Z=C; read-out: RS4; 11 EC50.
For `CC1(C)CCC(CN2CCN(c3ccc(C(=O)NS(=O)(=O)c4ccc(NC[C@@H]5CCCOC5)c([N+](=O)[O-])c4)c(Oc4ccc5[nH]ccc5c4)c3)CC2)=C(c2ccc(Cl)cc2)C1` [Example 21, 4-(4-{[2-(4-chlorophenyl)-4,4-dimethylcyclohex-1-en-1-yl]methyl}piperazin-1-yl)-2-(1H-indol-5-yloxy)-N-[(3-nitro-4-{[(3S)-tetrahydro-2H-pyran-3-ylmethyl]amino}phenyl)sulfonyl]benzamide], the EC50 came out at 0.062 µM.
